Where a name gives a salt, the structure may show the parent alone.
Assays:
[1] = tested on: BMI-1 protein; test: Inhibition of BMI-1 protein levels in U87 cells (Western blotting); format: cell-based; settings: read-out: IC50, inhibition of BMI-1 protein levels, U87 glioblastoma cell lysate, 72 hours
Description: U87 cells were treated with DMSO or different concentrations of compound B1 for 72 hours. Cells were lysed in Cell Lysis Buffer (Cell Signaling, #9803) supplemented with Protease Inhibitor Cocktail (Sigma, #P8340), sonicated briefly while on ice and spun down for 30 minutes at 4° C., after which the supernatant was collected. For each sample, 2 uL of lysate was mixed well into 198 uL de-ionized water. Next, 10 uL of this diluted sample was added to a well in a 96 well plate in quadruplets and mixed with Protein Assay Dye Reagent Concentrate (Bio-Rad, #500-0006) (which was diluted 1:5 with water). BSA standards of 25 ng, 50 ng, 100 ng, 200 ng and 250 ng were also used to the plate and mixed with the reagent. The plate was read in a plate reader at 600 nm and samples were calibrated to the standards to determine the concentration of protein. Using the NuPAGE system (Invitrogen), 25 ug of protein was mixed with NuPAGE LDS 4× Sample Buffer (#NP0007), NuPAGE 10× Reducing Agent (#NP0004) and water, mixed well and heated at 96° C. for 15 minutes to denature the protein. […] Protein signals were detected using ECL Western Blotting Substrate (Pierce, #32106) and filmed.
U87 cells were treated with DMSO or different concentrations of the inhibitors for 72 hours. […] The plate was read in a plate reader at 600 nm and samples were calibrated to the standards to determine the concentration of protein. […]

[2] = tested on: normal astrocytes; test: Effects on normal astrocytes; format: cell-based
Description: (§1) BMI-1 inhibitors were developed by the Molecular Design and Synthesis laboratory, Rutgers Translational Sciences at Rutgers University, NJ, USA. […] (Generic name is PTC-209) was characterized among a screen for post-transcriptional inhibitors of BMI-1. Zebrafish embryo toxicology assays were used to select RU-A compounds with no embryonic toxicity in vivo (a surrogate assay for toxic effects on normal stem cells). […] Cells were counted using Beckman Coulter Vi-CELL Cell Viability Analyzer, and cell viability was confirmed by CellTiter-Glo Luminescent Cell Viability Assay (Promega, Madison, Wis., USA) according to standard protocols and analyzed with a Victor 2 plate reader (Wallac, Turku, Finland).

[3] = tested on: BMI-1 5'UTR; test: Luciferase plasmid containing the BMI-1 5'UTR with or without binding pocket; format: cell-based
Description: Since translation initiation is dependent on RNA folding, the 3D folding of the BMI-1 5′UTR was examined. To identify sequences that fold into a target minimum and maximum free energy (MFE) secondary structure, inverse RNA folding of the BMI-1 5′UTR was performed using the mFold server. A highly probable, probability annotated group of secondary structures were identified, starting with the MFE, centroid energy structures and including fourteen other probabilities. […] In a luciferase plasmid containing the BMI-1 5′UTR, the sequences of the pocket region that contains the potential binding site was removed by cutting with compatible restriction enzymes and re-ligating the plasmid. The luciferase activity was examined with the luc plasmids or without the binding pocket upon treatment with the inhibitors. […] Thus, RU-A15/A16 engages with the BMI-1 UTR regulatory mechanisms.

[4] = tested on: Zebrafish embryo; test: Zebrafish embryo toxicology assay; format: in vivo
Description: as §1

[5] = tested on: glioblastoma cancer stem cells; test: Sphere selectivity ratio EC50(U87)/EC50(spheres); format: cell-based, human; settings: ratio greater than controls (DMSO and Temozolomide)
Description: The selectivity and potency in U87 cells were assessed vs primary GBM. Dose-response curves were generated in both spheres and monocultures and used to determine a sphere selectivity ratio (targeting Glioblastoma Initiating Cells), defined as EC50(U87)/EC50(spheres), for each compound.

[6] = tested on: U87 glioblastoma cells; test: Comparison of Example 3 and PTC-209 in U87 glioblastoma cells (cell viability); format: cell-based
Description: as §1

[7] = tested on: BMI-1 and ubiquitinated histone H2A in primary glioblastoma cells; test: Modulation / dynamics of BMI-1 and downstream targets in GBM cells (Western blotting); format: cell-based, human
Description: Different GBM cells were treated with DMSO or different concentrations of the B compounds for 72 hours. Cells were lysed in Cell Lysis Buffer (Cell Signaling, #9803) supplemented with Protease Inhibitor Cocktail (Sigma, #P8340), spun down for 30 minutes at 4° C., after which the supernatant was collected at every time point indicated. Western blotting analysis was performed on all samples as described above. BMI-1 loss started at 6-12 h, coinciding with an upper shift and hyper-phosphorylation of BMI-1 at 12-24 h and complete depletion at 72 h.
To study the compound dynamic activity against GBM spheres, GBMs were tested with exemplary compounds. Different GBM cells were treated with DMSO or different concentrations of the inhibitors for 72 hours. Cells were lysed in Cell Lysis Buffer (Cell Signaling, #9803) supplemented with Protease Inhibitor Cocktail (Sigma, #P8340), spun down for 30 minutes at 4° C., after which the supernatant was collected at every time point indicated. Western blotting analysis was performed on all samples as described above. […] BMI-1 loss started at 6-12 h, coinciding with an upper shift and hyper-phosphorylation of BMI-1 at 12-24 h and complete depletion at 72 h. […] This is expected since BMI-1 is known to suppress p21. BMI-1 inhibition could be reversed using phosphatase treatment, moreover, when proteasomal inhibitor is added to treated cells after 24 h, BMI-1 is locked in the phosphorylated state, therefore showing that the phosphorylation event precedes BMI-1 degradation. The phosphorylation was independent of p38 kinase activation, as when we added […], the p38 inhibitor to the cultured cells upon treatment with the BMI-1 inhibitor, the combined treatment could not reverse the effects of RU-A15 on BMI-1 inhibition.

[8] = tested on: BMI-1 and αENaC mRNA; test: mRNA expression of BMI-1 and αENaC on concomitant treatment with cyclohexamide; format: cell-based; settings: RU-A15 100 nM, RU-A16 200 nM, concomitant with CHX
Description: Next, to test if Examples 3 and 4 are selective for BMI-1 RNA, cells were concomitantly treated with RU-A15/16 (100 nM, 200 nM, respectively) and cyclohexamide (CHX), a general translational inhibitor, and analyzed mRNA expression of BMI-1 and the CHX-specific target epithelial sodium channel (αENaC).

[9] = primary glioblastoma cells, Western blotting

- IC50 [1]: 10 nM
- effects on normal astrocytes [2]: no significant effects
- normalized luc, BMI-1 5'UTR with intact binding pocket ([3]; intact minor groove potential binding pocket): significantly reduced normalized luc
- IC50 ([6]; Homo sapiens, U-87 MG, 72 hours): 10 nM
Structure (SMILES): COc1ccc(Nc2nc(-c3c(C)nc4ccccn34)cs2)cc1 [Example 3, N-(4-methoxyphenyl)-4-(2-methylimidaz[1,2-a]pyridin-3-yl)thiazol-2-aminehydrobromide]
- normalized luc, binding pocket sequences removed ([3]; pocket sequences removed): not when the pocket sequences were removed
- effects in embryo assays [4]: no significant effects
- selectivity for glioblastoma cancer stem cells (sphere selectivity ratio) [5]: high selectivity for glioblastoma cancer stem cells
- potency relative to PTC-209 [6]: one thousand-fold more potent than PTC-209
- CDK inhibitor p21 ([7]; GBM#46 and #50): induced upregulation of the CDK inhibitor p21
- lowest concentration giving dose-dependent loss of BMI-1 protein expression ([7]; GBM#50, 72 h): 25 nM
- BMI-1 protein levels [7, 9]: inhibit BMI-1
- WT p53 levels [7, 9]: increase WT p53 levels
- ubiquitin H2A [7, 9]: inhibit ubiquitin H2A
- BMI-1 mRNA expression [8]: did not inhibit
- αENaC mRNA expression [8]: did not inhibit

From US10875861B1, “Therapeutic compounds” (Rutgers, The State University of New Jersey, priority 2017, dated 2020)
